From ChEMBL document CHEMBL4819067, “Discovery of novel pyrimidine molecules containing boronic acid as VCP/p97 Inhibitors” (Bioorg Med Chem, 2021)

Experiments:
A549 = experiment: Cytotoxicity against human A549 cells assessed as reduction in cell viability incubated for 72 hrs by CCK8 assay; format: functional, cell-based; settings: A549, 72 h
[1] = biological target: Transitional endoplasmic reticulum ATPase (Homo sapiens, UniProt P55072); experiment: Inhibition of p97 (unknown origin) incubated for 60 mins by ADP-Glo assay
Transitional endoplasmic reticulum ATPase, sequence (P55072 whole entry): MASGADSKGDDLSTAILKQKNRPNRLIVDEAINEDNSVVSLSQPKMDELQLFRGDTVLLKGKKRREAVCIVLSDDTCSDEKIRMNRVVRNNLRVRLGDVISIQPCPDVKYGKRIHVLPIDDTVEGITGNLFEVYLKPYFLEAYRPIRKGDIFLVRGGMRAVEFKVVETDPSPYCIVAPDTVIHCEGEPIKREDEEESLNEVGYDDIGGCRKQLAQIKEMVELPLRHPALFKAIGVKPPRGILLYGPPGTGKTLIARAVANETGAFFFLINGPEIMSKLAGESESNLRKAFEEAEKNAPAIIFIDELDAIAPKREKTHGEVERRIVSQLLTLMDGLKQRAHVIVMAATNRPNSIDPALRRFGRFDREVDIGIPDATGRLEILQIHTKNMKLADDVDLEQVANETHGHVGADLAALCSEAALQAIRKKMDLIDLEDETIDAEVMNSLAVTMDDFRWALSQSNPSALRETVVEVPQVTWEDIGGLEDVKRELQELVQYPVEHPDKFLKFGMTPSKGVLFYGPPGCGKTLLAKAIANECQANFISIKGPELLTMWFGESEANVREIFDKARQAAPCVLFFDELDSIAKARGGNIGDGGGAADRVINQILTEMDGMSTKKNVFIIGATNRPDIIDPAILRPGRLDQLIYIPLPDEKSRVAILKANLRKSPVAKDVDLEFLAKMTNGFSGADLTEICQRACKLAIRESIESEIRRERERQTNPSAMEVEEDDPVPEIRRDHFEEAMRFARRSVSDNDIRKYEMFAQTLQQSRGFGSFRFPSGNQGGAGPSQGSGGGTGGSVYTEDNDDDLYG

RPMI-8226 = experiment: Cytotoxicity against human RPMI-8226 cells assessed as reduction in cell viability incubated for 72 hrs by CCK8 assay; format: functional, cell-based
[2] = Homo sapiens, RPMI-8226, 72 h, read-out: IC50

SMILES | IC50 [1] [µM] | IC50 (A549) [µM] | IC50 (RPMI-8226; [2]) [µM] | IC50 (RPMI-8226; rpmi-8226)
CC#CC(=O)Nc1cccc2c1cc(C)n2-c1nc(NCc2cccc(B(O)O)c2)c2ccccc2n1 | 0.114 | 5.6 | 2.2 | –
C#CC(=O)Nc1cccc2c1cc(C)n2-c1nc2c(c(NCc3cccc(B(O)O)c3)n1)CCC2 | 0.0914 | 2.1 | 1.27 | –
Cc1cc2c(NS(C)(=O)=O)cccc2n1-c1nc2c(c(NCc3cccc(B(O)O)c3)n1)COCC2 | 0.117 | > 10 | 5.1 | –
CC#CC(=O)Nc1cccc2c1cc(C)n2-c1nc2c(c(NCc3cccc(B(O)O)c3)n1)COCC2 | 0.117 | 4.1 | 2.9 | –
C/C=C/C(=O)Nc1cccc2c1cc(C)n2-c1nc2c(c(NCc3cccc(B(O)O)c3)n1)CCC2 | 0.166 | 4.45 | – | Not Active
Cc1cc2c(NC(=O)CC#N)cccc2n1-c1nc2c(c(NCc3cccc(B(O)O)c3)n1)CCC2 | 0.692 | – | – | –
Cc1cc2c(NC(=O)c3ccco3)cccc2n1-c1nc2c(c(NCc3cccc(B(O)O)c3)n1)CCCC2 | 0.0934 | 3.12 | 2.33 | –
Cc1cc2c(NC(=O)c3ccno3)cccc2n1-c1nc2c(c(NCc3cccc(B(O)O)c3)n1)CCC2 | 0.241 | – | – | –
Cc1cc2c(NC(=O)CCCl)cccc2n1-c1nc2c(c(NCc3cccc(B(O)O)c3)n1)CCC2 | 0.436 | – | – | –
Cc1cc2c(NC(=O)c3ccco3)cccc2n1-c1nc(NCc2cccc(B(O)O)c2)c2ccccc2n1 | 0.162 | 5.8 | 3.2 | –
Cc1cc2c(NC(=O)CCl)cccc2n1-c1nc2c(c(NCc3cccc(B(O)O)c3)n1)CCC2 | 0.258 | – | – | –
COc1cnc(-n2c(C)cc3c(NC(=O)c4ccco4)cccc32)nc1NCc1cccc(B(O)O)c1 | 0.0974 | 3.77 | 1.9 | –
C=CC(=O)Nc1cccc2c1cc(C)n2-c1nc2c(c(NCc3cccc(B(O)O)c3)n1)CCC2 | 0.192 | 4.75 | 2.94 | –
Cc1cc2c(NC(=O)c3cscn3)cccc2n1-c1nc2c(c(NCc3cccc(B(O)O)c3)n1)CCC2 | 0.468 | – | – | –

More lines, main results first:

IC50 [1] [µM] | SMILES | IC50 (A549) [µM] | IC50 (RPMI-8226; [2]) [µM] | IC50 (RPMI-8226; rpmi-8226)
0.032 | CC#CC(=O)Nc1cccc2c1cc(C)n2-c1ncc(OC)c(NCc2cccc(B(O)O)c2)n1 | 6.1 | 2.4 | –
0.0889 | Cc1cc2c(NS(C)(=O)=O)cccc2n1-c1nc(NCc2cccc(B(O)O)c2)c2ccccc2n1 | 5.6 | 3.6 | –
0.0898 | CC#CC(=O)Nc1cccc2c1cc(C)n2-c1nc2c(c(NCc3cccc(B(O)O)c3)n1)CCCC2 | 2.15 | 1.5 | –
0.0573 | Cc1cc2c(NC(=O)c3ccco3)cccc2n1-c1nc2c(c(NCc3cccc(B(O)O)c3)n1)CCC2 | 3.55 | 2.3 | –
0.0586 | CC#CC(=O)Nc1cccc2c1cc(C)n2-c1nc2c(c(NCc3cccc(B(O)O)c3)n1)CCC2 | 3.15 | 1.73 | –
0.0547 | Cc1cc2c(NS(C)(=O)=O)cccc2n1-c1nc2c(c(NCc3cccc(B(O)O)c3)n1)CCC2 | 2.8 | 0.86 | –
0.0456 | Cc1cc2c(NS(C)(=O)=O)cccc2n1-c1nc2c(c(NCc3cccc(B(O)O)c3)n1)CCCC2 | 2.42 | 1.55 | –
0.091 | Cc1cc2c(NC(=O)c3ccco3)cccc2n1-c1nc2c(c(NCc3cccc(B(O)O)c3)n1)COCC2 | 4.38 | 2.7 | –
